{"source": "patent US20090306342A1", "about": "“BINDING OF MOLECULES” (BIO-LAYER PTY LIMITED, priority 2005, published 2009)", "key": {"Human IgG": {"system": "Human IgG", "assay": "SPR IgG binding assay on gold (Example 4)", "conditions": "IgG 10-100 ug/mL, polyacrylic acid on gold, FIG. 7", "protocol": "Slides were then rinsed in Ethanol and incubated in a solution of 1% Polyacrylic acid. 2% w/v Polyacrylic acid was prepared by adding […] of Stock 10% w/v PAA solution (Poly(Acrylic Acid) MW 50K 10% w/v solution in DMF) to […] (N,N-Dimethylformamide (DMF) Labscan HPLC Grade—Dried over sieves and filtered). 100 mM solutions of NHS and DIC were prepared in dry DMF (N-Hydroxysuccinimide (NHS) (Aldrich cat: 130672), N,N′-Diisopropylcarbodiimide (DIC) (Sigma Aldrich cat: D125407)). 15 mL of 100 mM NHS and 15 mL of 100 mM DIC were added to 30 mL of 2% w/v of PAA solution and shaken on a RATEK platform mixer with speed setting 70 for 10 minutes. This gave a final 1.0% w/v solution of activated PAA. Each amino functionalized gold slide was placed in 10 mL of activated 1% wlv PAA solution and allowed to shake on a RATEK platform mixer with speed setting […] for 1 hour. The slides were then rinsed with dry DMF and using house nitrogen with a filter pipette tip in the end of the hose, the slides were blown dry using a concentrated flow over each slide. […]\nThe first concentration of IgG to be flowed through the cell and over the slide was 10 μg/mL. […] After the final concentration of 100 μg/mL IgG was analyzed, the signal was monitored by flowing 10 mM Phosphate Buffered Saline pH7.4 with 0.2% Tween20 over the slide. […]"}, "Fc of an antibody": {"system": "Fc of an antibody", "conditions": "Protein A binding region; cited from earlier work"}}, "note": "Entries after “also recorded” stand apart in the source; their conditions may differ.", "data": [{"smiles": "NCCNc1nc(NCCc2ccc(O)cc2)nc(Nc2ccccc2)n1", "note": "[APA, 2-(2-aminoethylamino)-4-anilino-6-tyramino-s-triazine]", "values": [{"measurement": "IgG binding by SPR", "setting": "Human IgG", "value": "poor or non-existent"}, {"measurement": "affinity for the Fc of an antibody", "setting": "Fc of an antibody", "value": "medium affinity; also recorded: weakly binds"}]}]}
